{"source": "patent US12258339B2", "about": "“Macrocyclic complexes of alpha-emitting radionuclides and their use in targeted radiotherapy of cancer” (Cornell University, priority 2018, dated 2025)", "key": {"[1]": {"assay": "Kinetic inertness of La^3+ and Lu^3+ complexes of macropa: transchelation challenge with EDTA/DTPA", "assay_type": "physicochemical", "conditions": "in the presence of 1000 equiv of DTPA, pH 7.4, monitored 21 days by UV", "description": "Kinetic Inertness of La^3+ and Lu^3+ Complexes of Macropa: Transchelation Challenge. A stock solution of ethylenediaminetetraacetic acid (EDTA, 100 mM) was made in MOPS buffer (prepared as described above) by adjusting the pH of the initial suspension to 6.6 using aqueous NMe4OH.\nThe preformed La^3+ and Lu^3+ complexes of macropa were challenged with EDTA.\nThe complex formed in situ between La^3+ and macropa was more rigorously challenged with excess DTPA. A solution containing 500 μM of complex, prepared using the LaCl3 and macropa stock solutions described above, was left to equilibrate for 5 min.\nBefore assessing its Ac-chelation properties, complex formation was evaluated in situ between macropa and cold La^3+ and Lu^3+ ions."}, "[2]": {"assay": "In vivo biodistribution of ^225Ac complexes of macropa and DOTA and of ^225Ac(NO3)3 in mice", "design": "species or system C57BL/6 mice", "protocol": "In Vivo Biodistribution of ^225Ac Complexes of Macropa and DOTA. All experiments were approved by the Institutional Animal Care Committee (IACC) of the University of British Columbia and were performed in accordance with the Canadian Council on Animal Care Guidelines. A total of 9 female C57BL/6 mice (6-8 weeks old, 20-25 g) were used for the biodistribution study of each radiometal complex, n=3 for each time point.\nMacropa (100 μL of a 1 mg/mL solution in NH4OAc) was diluted with 387 μL of NH4OAc (1 M, pH 7), and an aliquot (203 μL) of ^225Ac(NO3)3 (˜157 kBq) was then added; the pH of this solution was adjusted to 6.5-7 by the addition of 1 M NaOH (210 μL, trace metal grade). After 5 min at ambient temperature, the reaction solution was analyzed by TLC (0.4 M pH 4 sodium citrate as the eluent), which confirmed >95% radiochemical yield. The reaction was allowed to proceed overnight, and the radiochemical yield was again confirmed to be >95% the following morning. At this time, mice were anesthetized by 2% isoflurane, and approximately 100 μL (10-15 kBq) of the [^225Ac(macropa)]^+ complex were injected into the tail vein of each mouse. After injection, mice were allowed to recover and roam freely in their cages, and were euthanized by CO2 inhalation at 15 min, 1 h, or 5 h (n=3 at each time point) post-injection. Blood was collected by cardiac puncture and placed into an appropriate test tube for scintillation counting. Tissues collected included heart, liver, kidneys, lungs, small intestine, large intestine, brain, bladder, spleen, stomach, pancreas, bone, thyroid, tail, urine, and feces. Tissues were weighed and then counted with a calibrated gamma counter (Packard, Cobra II model 5002) using three energy windows: 60-120 keV (window A), 180-260 keV (window B), and 400-480 keV (window C). Counting was performed both immediately after sacrifice and after 7 days; counts were decay corrected from the time of injection and then converted to the percentage of injected dose (% ID) per gram of tissue (% ID/g). […]\nThe biodistribution studies of [^225Ac(DOTA)]^− and ^225Ac(NO3)3 were carried out as described above for [^225Ac(macropa)]^+, with the following modifications. [^225Ac(DOTA)^− was prepared by adding ^225Ac(NO3)3 (338 μL, 1.1 MBq) to a solution of DOTA (100 μg, 20 mg/mL in H2O) in NH4OAc (467 μL, 0.15 M, pH 7). The pH of the solution was adjusted to 7 using NH4OAc (150 μL, 1 M, pH 7) and the solution was heated at 85° C. for 45 min. RCY>99% was confirmed by TLC as described above. [^225Ac(DOTA)]^− was diluted with saline to a final concentration of 0.05 MBq/100 μL, and 100 μL were injected into each mouse. ^225Ac(NO3)3 (˜58 μL, 0.4 MBq) was diluted and injected in the same manner as [^225Ac(DOTA)]^−. One mouse that was to be euthanized at the 5 h time point in the [^225Ac(DOTA)]^− study died shortly after injection. In the same manner, one mouse that was to be euthanized at the 1 h time point in the ^225Ac(NO3)3 study died.\nThe in vivo stability [^225Ac(macropa)]^+ was examined by comparing its biodistribution to those of ^225Ac(NO3)3 and [^225Ac(DOTA)]^−. C57BL/6 mice were injected via tail vein with 10-50 kBq of each radiometal complex and were sacrificed after 15 min, 1 h, or 5 h. The amount of ^225Ac retained in each organ was quantified by gamma counting and reported as the percent of injected dose per gram of tissue (% ID/g). The results of these studies are compiled in Tables 1-3. Inadequate stability of an ^225Ac complex leading to the loss of radioisotope in vivo is manifested by the accumulation of ^225Ac in the liver, spleen, and bone of mice.^[11,12,32] […] The biodistribution profile of [^225Ac(macropa)]^+ (FIG. 3B) differs markedly from that of ^225Ac(NO3)3. […] Its biodistribution profile was similar to that of [^225Ac(DOTA)]^− (FIG. 3C), which has been previously shown to retain ^225Ac in vivo.^[7]"}, "[3]": {"conditions": "1 h after i.v. injection, energy window C (400-480 keV)"}, "[4]": {"conditions": "5 h after i.v. injection, energy window A (60-120 keV)"}}, "data": [{"smiles": "O=C([O-])c1cccc(CN2CCOCCOCCN(Cc3cccc(C(=O)O)n3)CCOCCOCC2)n1.[La+3]", "note": "[La^3+ complex]", "values": [{"measurement": "time complex remained intact", "setting": "[1]", "result": "up to 21 days"}]}, {"smiles": "O=C([O-])CN1CCN(CC(=O)[O-])CCN(CC(=O)[O-])CCN(CC(=O)[O-])CC1.[225Ac+3]", "note": "[[^225Ac(DOTA)]^−, reference compound]", "values": [{"measurement": "Organ distribution: brain", "setting": "[2]; [3]", "result": 0.0380, "unit": "% ID/g"}, {"measurement": "Organ distribution: blood", "setting": "[2]; [4]", "result": 0.0140, "unit": "% ID/g"}, {"measurement": "Organ distribution: lungs", "setting": "[2]; [4]", "result": 0.0390, "unit": "% ID/g"}]}, {"smiles": "O=[N+]([O-])[O-].O=[N+]([O-])[O-].O=[N+]([O-])[O-].[225Ac]", "note": "[^225Ac(NO3)3, reference compound]", "values": [{"measurement": "Organ distribution: feces", "setting": "[2]; 15 min after i.v. injection, energy window A (60-120 keV)", "result": 0.240, "unit": "% ID/g"}, {"measurement": "Organ distribution: feces", "setting": "[2]; 1 h after i.v. injection, energy window B (180-260 keV)", "result": 0.3300, "unit": "% ID/g"}, {"measurement": "Organ distribution: thyroids", "setting": "[2]; [3]", "result": 0.0000, "unit": "% ID/g"}, {"measurement": "Organ distribution: brain", "setting": "[2]; 5 h after i.v. injection, energy window B (180-260 keV)", "result": 0.0290, "unit": "% ID/g"}, {"measurement": "Organ distribution: brain", "setting": "[2]; 5 h after i.v. injection, energy window C (400-480 keV)", "result": 0.0430, "unit": "% ID/g"}, {"measurement": "blood clearance and excretion (in words)", "setting": "[2]; i.v. injection, up to 5 h", "result": "slow blood clearance and excretion"}, {"measurement": "organ accumulation (in words)", "setting": "[2]; i.v. injection, up to 5 h", "result": "large accumulation in the liver and spleen"}]}]}
